Assay results as given in patent US8034843B2, “Compositions comprising cannabinoids for treatment of nausea, vomiting, emesis, motion sickness or like conditions” (priority 2002, dated 2011).

What was measured:
[1] = Stability of purified CBDA in solution; format: physicochemical
Text: This undesirable decarboxylation of the purified material might be minimised by manipulation of CBDA at sub-ambient temperatures.

[2] = molecular target: CB2 (Peripheral receptors) (Homo sapiens, UniProt P34972); conditions: cited from earlier work
Chain of CB2 (Peripheral receptors) (P34972 whole entry, species assumed): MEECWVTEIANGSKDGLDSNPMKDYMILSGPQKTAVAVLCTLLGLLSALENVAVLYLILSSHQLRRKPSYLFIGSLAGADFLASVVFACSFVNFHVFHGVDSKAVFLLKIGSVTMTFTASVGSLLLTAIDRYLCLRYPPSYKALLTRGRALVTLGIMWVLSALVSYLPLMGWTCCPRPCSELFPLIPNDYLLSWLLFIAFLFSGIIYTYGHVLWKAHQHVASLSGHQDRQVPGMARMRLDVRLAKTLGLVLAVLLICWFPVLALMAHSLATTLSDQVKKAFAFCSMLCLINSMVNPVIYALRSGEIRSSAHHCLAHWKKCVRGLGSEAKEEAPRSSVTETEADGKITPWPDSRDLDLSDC

Structure (SMILES) | decarboxylation in solution (CBDA→CBD+CO2) [1] | binding to CB2 receptors [2]
C=C(C)[C@@H]1CCC(C)=C[C@H]1c1c(O)cc(CCCCC)c(C(=O)O)c1O [CBDA] | slowly decarboxylates in solution | –
CCCCCc1cc(O)c2c(c1)OC(C)(C)[C@@H]1CCC(C)=C[C@@H]21 [THC, delta^9-tetrahydrocannabinol] | – | bound with high avidity
